Measured values: patent publication US20230389548A1, “MIXTURES OF PYRIMIDINES AS HERBICIDAL COMPOSITIONS” (SYNGENTA CROP PROTECTION AG, priority 2020, published 2023)

How the values were obtained:
Assay in all cases: Post-emergence glasshouse spray test, visual percentage phytotoxicity after 13 days
Format in all cases: in vivo
Lolium perenne (LOLPE) = conditions: for LOLPE percentage phytotoxicity: B1; for Observed phytotoxicity LOLPE: B2.3.4
Experimental: (§1) Seeds of Setaria faberi (SETFA), Echinochloa crus-galli (ECHCG), Digitaria sanguinalis (DIGSA), Lolium perenne (LOLPE), Alopecurus myosuroides (ALOMY), Chenopodium album (CHEAL), Ipomoea hederacea (IPOHE), Stellaria media (STEME), Abutilon threophrasti (ABUTH), Amaranthus retroflexus (AMARE) were sown in standard sterilised soil in pots. After cultivation for 8 days under controlled conditions in a glasshouse (at 24/19° C., day/night; 16 hours light; no humidity control), the plants were sprayed at 500 l/Ha with an aqueous spray solution derived from the formulation of the technical active ingredients in a small amount of acetone and a solvent and emulsifier mixture referred to as IF50 (11.12% Emulsogen EL360™+44.44% N-methylpyrrolidone+44.44% Dowanol DPM glycol ether), to create a 50 g/l solution which was then diluted using 0.2% Genapol XO80 (CAS Number: 9043-30-5) as diluent to give the desired final dose of test compound.
(§2) Where active ingredients were applied as mixtures, aqueous spray solutions were prepared as above, containing both active ingredients.
(§3) The test plants were then grown under controlled conditions in a glasshouse (at 24/18° C., day/night; 15 hours light; 50% humidity) and watered twice daily. After 13 days, the test was evaluated visually for percentage phytotoxicity to the plants (where 100=total damage to plant; 0=no damage to plant; and NC=not captured) when compared to control untreated plants. Two to four replicates were applied for each treatment in a randomised block test design.
(§4) 22., E=X+Y−(X*Y/100), where
(§5) X=average percent phytotoxicity of herbicide A when applied at a certain rate Y=average percent phytotoxicity using herbicide B when applied at a certain rate E=the expected effect of the mixture of herbicides A and B as calculated from the Colby formula.

[1] = tested on: Echinochloa crus-galli (ECHCG); conditions: for ECHCG percentage phytotoxicity: B1; for Observed phytotoxicity ECHCG: B2.3.2
Experimental: as §1, §2, §3, §4, §5

Stellaria media (STEME) = conditions: for STEME percentage phytotoxicity: B1
Experimental: as §1, §2, §3, §4, §5

Setaria faberi (SETFA) = conditions: for SETFA percentage phytotoxicity: B1; for Observed phytotoxicity SETFA: B2.3.1
Experimental: as §1, §2, §3, §4, §5

[2] = tested on: Ipomoea hederacea (IPOHE); conditions: for IPOHE percentage phytotoxicity: B1
Experimental: as §1, §2, §3, §4, §5

[3] = tested on: Amaranthus retroflexus (AMARE); conditions: B1
Experimental: as §1, §2, §3, §4, §5

[4] = tested on: Chenopodium album (CHEAL); conditions: B1
Experimental: as §1, §2, §3, §4, §5

[5] = tested on: Digitaria sanguinalis (DIGSA); conditions: for DIGSA percentage phytotoxicity: B1
Experimental: as §1, §2, §3, §4, §5

[6] = tested on: Abutilon threophrasti (ABUTH); conditions: B1
Experimental: as §1, §2, §3, §4, §5

[7] = tested on: Alopecurus myosuroides (ALOMY); conditions: for ALOMY percentage phytotoxicity: B1
Experimental: as §1, §2, §3, §4, §5

Structure (SMILES): CCOC(=O)COc1ncccc1Oc1cc(-n2c(=O)cc(C(F)(F)F)n(C)c2=O)c(F)cc1Cl [B-V]
- LOLPE percentage phytotoxicity (Lolium perenne (LOLPE); 0.31 g/ha post-emergence): 2%
- LOLPE percentage phytotoxicity (Lolium perenne (LOLPE); 0.625 g/ha post-emergence): 0%
- LOLPE percentage phytotoxicity (Lolium perenne (LOLPE); 1.25 g/ha post-emergence): 8%
- LOLPE percentage phytotoxicity (Lolium perenne (LOLPE); 2.5 g/ha post-emergence): 15%
- LOLPE percentage phytotoxicity (Lolium perenne (LOLPE); 5 g/ha post-emergence): 25%
- Observed phytotoxicity LOLPE (Lolium perenne (LOLPE); 1.25 g/ha post-emergence): 8%
- Observed phytotoxicity LOLPE (Lolium perenne (LOLPE); 2.5 g/ha post-emergence): 15%
- ECHCG percentage phytotoxicity ([1]; 0.31 g/ha post-emergence): 5%
- ECHCG percentage phytotoxicity ([1]; 0.625 g/ha post-emergence): 3%
- ECHCG percentage phytotoxicity ([1]; 1.25 g/ha post-emergence): 9%
- ECHCG percentage phytotoxicity ([1]; 2.5 g/ha post-emergence): 23%
- ECHCG percentage phytotoxicity ([1]; 5 g/ha post-emergence): 65%
- Observed phytotoxicity ECHCG ([1]; 0.625 g/ha post-emergence): 3%
- Observed phytotoxicity ECHCG ([1]; 1.25 g/ha post-emergence): 9%
- Observed phytotoxicity ECHCG ([1]; 2.5 g/ha post-emergence): 23%
- STEME percentage phytotoxicity (Stellaria media (STEME); 0.31 g/ha post-emergence): 25%
- STEME percentage phytotoxicity (Stellaria media (STEME); 0.625 g/ha post-emergence): 83%
- STEME percentage phytotoxicity (Stellaria media (STEME); 1.25 g/ha post-emergence): 83%
- STEME percentage phytotoxicity (Stellaria media (STEME); 2.5 g/ha post-emergence): 100%
- STEME percentage phytotoxicity (Stellaria media (STEME); 5 g/ha post-emergence): 100%
- Observed phytotoxicity STEME (Stellaria media (STEME); B2.3.7, 0.3125 g/ha post-emergence): 25%
- SETFA percentage phytotoxicity (Setaria faberi (SETFA); 0.31 g/ha post-emergence): 30%
- SETFA percentage phytotoxicity (Setaria faberi (SETFA); 0.625 g/ha post-emergence): 38%
- SETFA percentage phytotoxicity (Setaria faberi (SETFA); 1.25 g/ha post-emergence): 85%
- SETFA percentage phytotoxicity (Setaria faberi (SETFA); 2.5 g/ha post-emergence): 99%
- SETFA percentage phytotoxicity (Setaria faberi (SETFA); 5 g/ha post-emergence): 100%
- Observed phytotoxicity SETFA (Setaria faberi (SETFA); 0.625 g/ha post-emergence): 38%
- Observed phytotoxicity SETFA (Setaria faberi (SETFA); 1.25 g/ha post-emergence): 85%
- IPOHE percentage phytotoxicity ([2]; 0.31 g/ha post-emergence): 58%
- IPOHE percentage phytotoxicity ([2]; 0.625 g/ha post-emergence): 70%
- IPOHE percentage phytotoxicity ([2]; 1.25 g/ha post-emergence): 100%
- IPOHE percentage phytotoxicity ([2]; 2.5 g/ha post-emergence): 100%
- IPOHE percentage phytotoxicity ([2]; 5 g/ha post-emergence): 100%
- Observed phytotoxicity IPOHE ([2]; B2.3.6, 0.3125 g/ha post-emergence): 58%
- AMARE percentage phytotoxicity ([3]; 0.31 g/ha post-emergence): 98%
- AMARE percentage phytotoxicity ([3]; 0.625 g/ha post-emergence): 98%
- AMARE percentage phytotoxicity ([3]; 1.25 g/ha post-emergence): 100%
- AMARE percentage phytotoxicity ([3]; 2.5 g/ha post-emergence): 100%
- AMARE percentage phytotoxicity ([3]; 5 g/ha post-emergence): 100%
- CHEAL percentage phytotoxicity ([4]; 0.31 g/ha post-emergence): 85%
- CHEAL percentage phytotoxicity ([4]; 0.625 g/ha post-emergence): 96%
- CHEAL percentage phytotoxicity ([4]; 1.25 g/ha post-emergence): 93%
- CHEAL percentage phytotoxicity ([4]; 2.5 g/ha post-emergence): 100%
- CHEAL percentage phytotoxicity ([4]; 5 g/ha post-emergence): 100%
- DIGSA percentage phytotoxicity ([5]; 0.31 g/ha post-emergence): 13%
- DIGSA percentage phytotoxicity ([5]; 0.625 g/ha post-emergence): 43%
- DIGSA percentage phytotoxicity ([5]; 1.25 g/ha post-emergence): 88%
- DIGSA percentage phytotoxicity ([5]; 2.5 g/ha post-emergence): 99%
- DIGSA percentage phytotoxicity ([5]; 5 g/ha post-emergence): 100%
- Observed phytotoxicity DIGSA ([5]; B2.3.3, 0.625 g/ha post-emergence): 43%
- ABUTH percentage phytotoxicity ([6]; 0.31 g/ha post-emergence): 97%
- ABUTH percentage phytotoxicity ([6]; 0.625 g/ha post-emergence): 98%
- ABUTH percentage phytotoxicity ([6]; 1.25 g/ha post-emergence): 100%
- ABUTH percentage phytotoxicity ([6]; 2.5 g/ha post-emergence): 100%
- ABUTH percentage phytotoxicity ([6]; 5 g/ha post-emergence): 100%
- ALOMY percentage phytotoxicity ([7]; 0.31 g/ha post-emergence): 2%
- ALOMY percentage phytotoxicity ([7]; 0.625 g/ha post-emergence): 2%
- ALOMY percentage phytotoxicity ([7]; 1.25 g/ha post-emergence): 10%
- ALOMY percentage phytotoxicity ([7]; 2.5 g/ha post-emergence): 20%
- ALOMY percentage phytotoxicity ([7]; 5 g/ha post-emergence): 28%
- Observed phytotoxicity ALOMY ([7]; B2.3.5, 1.25 g/ha post-emergence): 10%
